According to patent US20120172351A1, “NOVEL FUSED CYCLIC COMPOUND AND USE THEREOF” (priority 2009, published 2012):
Where a name gives a salt, the structure may show the parent alone. Marks after values point to notes of the source that are not given here.

Key:
human derived GPR40 = target: T1, human derived GPR40 (Homo sapiens, UniProt O14842); assay: Agonist action on human derived GPR40: change of intracellular calcium concentration in CHO cells (FLIPRtetra); format: cell-based; settings: agonist activity of compound at 1 μM, relative to 10 μM γ linolenic acid as 100%, wave peak height; CHO cells stably expressing human GPR40
T1 construct: expressed in transfected cells
Protocol: The CHO cell lines that stably expressed human derived GPR40 were used for the determination of the agonist activity. Unless particularly specified, the CHO cell lines were cultured in an α-MEM medium (Wako Pure Chemical Industries, Ltd.) containing 10% dialyzed fetal bovine serum (TRA Thermo Electron).
The cells cultured almost to confluent on the day before assay were rinsed with PBS (Invitrogen), detached with 0.5 mM EDTA (Wako Pure Chemical Industries, Ltd.), and recovered by centrifugation. The obtained cells were counted, diluted to 2×10^5 cells per 1 mL medium, dispensed by 40 μL per well to a 384 well black clear bottomplate (PE Biosystems), and cultured overnight in a CO2 incubator. Various test compounds were added to CHO cells prepared as mentioned above, and change of intracellular calcium concentration was measured using FLIPRtetra (Molecular Device). For the measurement by this device, a Calcium 4 assay kit (Molecular Devices: R8142) was used.
First, fatty acid free BSA at the final concentration of 0.1% was added to the buffer attached to the kit to prepare an assay buffer. Using the assay buffer, a loading solution with Fluo4 was prepared such that the final concentration of fatty acid free BSA was 0.1% and the final concentration of probenecid was 625 μM. On the other hand, a test compound was diluted with the assay buffer to a given concentration, and dispensed to the polypropylene 384-well plate (sample plate). The medium was removed from the cell culture plate, and the loading solution with Fluo4 was dispensed by 25 μL. After culture in a CO2 incubator at 37° C. for 40 min, a sample plate and a cell plate were simultaneously set on the FLIPRtetra, various test compounds were added by 25 μL according to the program of the device, and change of intracellular calcium concentration was measured. The agonist activity of each compound at 1 μM was calculated as a relative activity value to the activity of 10 μM γ linolenic acid as 100% from the wave peak height.

N-STZ-1.5 rat = assay: Oral glucose tolerance test in N-STZ-1.5 rat (type 2 diabetes model); format: in vivo; settings: male N-STZ-1.5 rats, 1 mg/kg oral, glucose 1.5 g/kg 1 hr after dosing; for Blood glucose lowering rate: glucose AUC 0-120 min vs control group; for Insulin increasing rate: insulin AUC 0-120 min vs control group
Protocol: The blood glucose increase suppressive action and insulin secretagogue action of the compound of the present invention were evaluated by an oral glucose tolerance test using N-STZ-1.5 rat (TAKEDA RABICS).
Streptozotocin (120 mg/kg) was subcutaneously administered to male Wistar Kyoto rats (1-2 days old) to prepare N-STZ-1.5 rat which is a type 2 diabetes model. The rats were bred under free access to a feed (CE-2, sold by CLEA Japan, Inc.).
Male N-STZ-1.5 rats (21-week-old) were fasted for 19-21 hr, and the body weight was measured. Heparin (Ajinomoto Co., Inc.) was added as an anticoagulant, and aprotinin (SIGMA) was added as a protease inhibitor, and the blood was collected from the tail vein. 0.5% Methylcellulose (control group) or a 0.5% methylcellulose suspension of a test compound (1 mg/kg body weight) was orally administered to the rats of each group (6 per group) at 5 ml/kg and, 1 hr after the administration, a glucose solution (Otsuka Pharmaceutical Factory, Inc.) was orally administered at 1.5 g/5 ml/kg. The blood was collected from the tail vein immediately before glucose loading (0 min value) and 10, 30, 60, 120 min thereafter. The blood was centrifuged and the plasma was separated. The plasma glucose and insulin concentration of the obtained plasma were measured. The plasma glucose was measured by automatic analyzer 7080 (HITACHI), and the insulin concentration was measured by RAT INSULIN RIA KIT (LINCO Research). The glucose AUC and insulin AUC were calculated from the obtained values by the following formulas. Moreover, blood glucose lowering rate and insulin increasing rate were calculated from the obtained AUC by the following formulas. Statistical significance versus control was analyzed by Student's t-test or Aspin-Welch test.
{(0 min plasma glucose)+(10 min plasma glucose)}×10/2+{(10 min plasma glucose)+(30 min plasma glucose)}×20/2+{(30 min plasma glucose)+(60 min plasma glucose)}×30/2+{(60 min plasma glucose)+(120 min plasma glucose)}×60/2
{(0 min plasma insulin)+(10 min plasma insulin)}×10/2+{(10 min plasma insulin)+(30 min plasma insulin)}×20/2+{(30 min plasma insulin)+(60 min plasma insulin)}×30/2+{(60 min plasma insulin)+(120 min plasma insulin)}×60/2
blood glucose lowering rate: [(test compound administration group glucose AUC/control group glucose AUC)−1]×100
insulin increasing rate: [(test compound administration group insulin AUC/control group […] AUC)-1]×100

Wistar fatty rat = assay: Oral glucose tolerance test in Wistar fatty rat; format: in vivo; settings: female Wistar fatty rats, 1 mg/kg oral, glucose 1 g/kg 1 hr after dosing; glucose AUC 0-120 min vs control group
Protocol: The blood glucose increase suppressive action of the compound of the present invention was evaluated by an oral glucose tolerance test using Wistar fatty rat (TAKEDA RABICS).
The animal used was female Wistar fatty rat (prepared by TAKEDA RABICS, 18- to 22-week-old). The rats were bred under free access to a feed (CE-2, sold by CLEA Japan, Inc.).
Female Wistar fatty rats (18- to 22-week-old) were fasted for 19-21 hr, and the body weight was measured. Heparin (Ajinomoto Co., Inc.) was added as an anticoagulant, and aprotinin (SIGMA) was added as a protease inhibitor, and the blood was collected from the tail vein. 0.5% Methylcellulose (control group) or a 0.5% methylcellulose suspension of a test compound (1 mg/kg body weight) was orally administered to the rats of each group (6 per group) at 5 ml/kg and, 1 hr after the administration, a glucose solution (Otsuka Pharmaceutical Factory, Inc.) was orally administered at 1 g/5 ml/kg. […] The plasma glucose of the obtained plasma were measured by automatic analyzer 7080 (HITACHI). The glucose AUC was calculated from the obtained values by the formulas described in Experimental Example 2. Moreover, blood glucose lowering rate was calculated from the obtained AUC by the formulas described in Experimental Example 2. Statistical significance versus control was analyzed by Student's t-test.

T1 sequence (O14842 whole entry): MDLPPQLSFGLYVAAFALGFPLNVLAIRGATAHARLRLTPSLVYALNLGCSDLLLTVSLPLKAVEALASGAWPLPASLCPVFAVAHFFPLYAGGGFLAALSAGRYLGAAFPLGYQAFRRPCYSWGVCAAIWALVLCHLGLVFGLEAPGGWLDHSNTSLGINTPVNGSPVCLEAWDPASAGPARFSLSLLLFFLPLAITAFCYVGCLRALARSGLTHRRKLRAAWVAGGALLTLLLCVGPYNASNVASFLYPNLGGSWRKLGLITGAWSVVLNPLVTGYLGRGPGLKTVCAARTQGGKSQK

Cc1nc(N2CCOCC2)nc(C)c1-c1cccc(CNc2ccc3c(c2)OC[C@H]3CC(=O)O)c1C (as salt: salt) [Example 242, 1,3-dihydroxy-2-(hydroxymethyl)propan-2-aminium [(3S)-6-({3[4,6-dimethyl-2-(morpholin-4-yl)pyrimidin-5-yl]-2-methylbenzyl}amino)-2,3-dihydro-1-benzofuran-3-yl]acetate]
melting point: 154 °C

Cc1cc(OCCCS(C)(=O)=O)cc(C)c1-c1cccc2c1OC[C@H]2Nc1ccc2c(c1)OC[C@H]2CC(=O)O [Example 7, [(3S)-6-{[(3S)-7-{2,6-dimethyl-4-[3-(methylsulfonyl)propoxy]phenyl}-2,3-dihydro-1-benzofuran-3-yl]amino}-2,3-dihydro-1-benzofuran-3-yl]acetic acid]
activity (%) (human derived GPR40): 124% | melting point: 169 °C | Blood glucose lowering rate (N-STZ-1.5 rat): −20.5%** | Insulin increasing rate (N-STZ-1.5 rat): +39.5%^$

Cc1cc(OC[C@@H]2CCC(=O)N2)cc(C)c1-c1cccc2c1OC[C@H]2Nc1ccc2c(c1)OC[C@H]2CC(=O)O [Example 8, [(3S)-6-{[(3S)-7-(2,6-dimethyl-4-{[(2S)-5-oxopyrrolidin-2-yl]methoxy}phenyl)-2,3-dihydro-1-benzofuran-3-yl]amino}-2,3-dihydro-1-benzofuran-3-yl]acetic acid]
activity (%) (human derived GPR40): 131% | melting point: 161 °C

Cc1cc(OC2CCS(=O)(=O)CC2)cc(C)c1-c1cccc2c1OC[C@H]2Nc1ccc2c(c1)OC[C@H]2CC(=O)O [Example 9, [(3S)-6-{[(3S)-7-{4-[(1,1-dioxidotetrahydro-2H-thiopyran-4-yl)oxy]-2,6-dimethylphenyl}-2,3-dihydro-1-benzofuran-3-yl]amino}-2,3-dihydro-1-benzofuran-3-yl]acetic acid]
activity (%) (human derived GPR40): 128% | melting point: 176 °C | Blood glucose lowering rate (Wistar fatty rat): −15.8%**

CCOc1nc2ccc(F)c(F)c2n1-c1cccc2c1OC[C@H]2Nc1ccc2c(c1)OC[C@H]2CC(=O)[O-].[Na+] [Example 33, sodium [(3S)-6-{[(3S)-7-(2-ethoxy-6,7-difluoro-1H-benzimidazol-1-yl)-2,3-dihydro-1-benzofuran-3-yl]amino}-2,3-dihydro-1-benzofuran-3-yl]acetate]
activity (%) (human derived GPR40): 109% | Blood glucose lowering rate (Wistar fatty rat): −19.5%**

Cc1nc(N2CCOCC2)nc(C)c1-c1cccc2c1OC[C@H]2Nc1ccc2c(c1)OC[C@H]2CC(=O)O [Example 77, [(3S)-6-({(3S)-7-[4,6-dimethyl-2-(morpholin-4-yl)pyrimidin-5-yl]-2,3-dihydro-1-benzofuran-3-yl}amino)-2,3-dihydro-1-benzofuran-3-yl]acetic acid]
melting point: 168 °C

Cc1nc(N2CCOCC2)nc(C)c1-c1cccc2c1OC[C@H]2Nc1ccc2c(c1)OC[C@H]2CC(=O)O.O [Example 77-1, Hydrate of [(3S)-6-({(3S)-7-[4,6-dimethyl-2-(morpholin-4-yl)pyrimidin-5-yl]-2,3-dihydro-1-benzofuran-3-yl}amino)-2,3-dihydro-1-benzofuran-3-yl]acetic acid]
Blood glucose lowering rate (N-STZ-1.5 rat): −13.6%^$ | Insulin increasing rate (N-STZ-1.5 rat): +40.2%^$

Cc1nc(N2CCCC2)nc(C)c1-c1cccc2c1OC[C@H]2Nc1ccc2c(c1)OC[C@H]2CC(=O)O [Example 79, [(3S)-6-({(3S)-7-[4,6-dimethyl-2-(pyrrolidin-1-yl)pyrimidin-5-yl]-2,3-dihydro-1-benzofuran-3-yl}amino)-2,3-dihydro-1-benzofuran-3-yl]acetic acid]
activity (%) (human derived GPR40): 126% | melting point: 169 °C

CCCN(c1cc(C)ccn1)c1cccc2c1OC[C@H]2Nc1ccc2c(c1)OC[C@H]2CC(=O)O [Example 82, [(3S)-6-({(3S)-7-[(4-methylpyridin-2-yl)(propyl)amino]-2,3-dihydro-1-benzofuran-3-yl}amino)-2,3-dihydro-1-benzofuran-3-yl]acetic acid]
activity (%) (human derived GPR40): 129% | melting point: 146 °C

Cc1nc(N2CCOCC2)nc(C)c1-c1cccc(CNc2ccc3c(c2)OC[C@H]3CC(=O)O)c1C [Example 242, 1,3-dihydroxy-2-(hydroxymethyl)propan-2-aminium [(3S)-6-({3[4,6-dimethyl-2-(morpholin-4-yl)pyrimidin-5-yl]-2-methylbenzyl}amino)-2,3-dihydro-1-benzofuran-3-yl]acetate]
activity (%) (human derived GPR40): 121%
